31 molecules from patent US20210261512A1, “NOVEL COMPOUNDS” (INFLAZOME LIMITED, priority 2018, published 2021) can be followed below.

Molecules are shown by their SMILES. Bounds are passed on as bounds.

This assay concerns the target NLRP3 (Homo sapiens, UniProt Q96P20). The experiment in a line: THP-1 cells pyroptosis assay. The assay is classed as cell-based. On the set-up: Seed THP-1 cells (25,000 cells/well) containing 1.0 μg/ml LPS; host or cells: THP-1. Conditions: LPS 1.0 μg/ml, nigericin 5 μM, resazurin readout, 10 μM top dose (Example 2: top dose of 30 μM). The gist of the method:
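Pyroptosis induced by 5 μM nigericin (1 h) in LPS-primed (1 μg/ml) THP-1 cells, 25,000/well in serum-free RPMI, after 3 h compound pre-treatment (8 points, 10 μM top unless stated). Surviving cells measured with 100 μM resazurin, Ex 560/Em 590; IC50 via variable-slope 4-parameter regression.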

Sequence of NLRP3 (Q96P20 whole entry): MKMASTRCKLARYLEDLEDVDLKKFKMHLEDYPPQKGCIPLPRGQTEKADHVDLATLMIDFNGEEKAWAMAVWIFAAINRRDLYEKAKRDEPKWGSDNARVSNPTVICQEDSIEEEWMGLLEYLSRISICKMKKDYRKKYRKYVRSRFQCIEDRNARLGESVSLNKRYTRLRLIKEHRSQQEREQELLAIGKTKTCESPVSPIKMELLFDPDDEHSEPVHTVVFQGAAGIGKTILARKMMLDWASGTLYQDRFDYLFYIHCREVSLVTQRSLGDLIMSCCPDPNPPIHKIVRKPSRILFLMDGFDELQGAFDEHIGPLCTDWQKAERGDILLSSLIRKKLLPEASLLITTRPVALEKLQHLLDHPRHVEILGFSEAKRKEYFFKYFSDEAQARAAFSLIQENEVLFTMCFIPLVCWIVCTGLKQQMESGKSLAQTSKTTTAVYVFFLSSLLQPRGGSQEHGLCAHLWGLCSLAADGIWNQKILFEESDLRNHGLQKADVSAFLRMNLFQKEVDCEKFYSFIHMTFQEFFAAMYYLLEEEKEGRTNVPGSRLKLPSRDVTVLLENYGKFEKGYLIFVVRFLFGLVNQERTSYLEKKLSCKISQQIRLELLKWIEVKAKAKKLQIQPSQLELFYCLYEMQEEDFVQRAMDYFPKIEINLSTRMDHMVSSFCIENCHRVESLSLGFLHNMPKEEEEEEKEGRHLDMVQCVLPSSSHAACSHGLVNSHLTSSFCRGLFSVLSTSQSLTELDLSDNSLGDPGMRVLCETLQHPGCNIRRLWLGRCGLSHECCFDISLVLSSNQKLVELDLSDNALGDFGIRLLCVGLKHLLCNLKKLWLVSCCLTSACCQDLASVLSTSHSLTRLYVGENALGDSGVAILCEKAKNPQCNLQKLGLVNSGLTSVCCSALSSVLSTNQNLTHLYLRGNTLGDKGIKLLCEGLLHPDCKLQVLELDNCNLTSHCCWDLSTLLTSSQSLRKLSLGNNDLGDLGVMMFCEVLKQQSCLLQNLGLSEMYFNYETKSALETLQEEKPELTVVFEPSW

As to `COc1cc(-c2cc(-c3ncco3)c3c(c2Nc2nnc(S(=O)(=O)N4CCC(N(C)C)CC4)[nH]2)CCC3)ccn1` [Example 229, 1-((5-((5-(2-methoxypyridin-4-yl)-7-(oxazol-2-yl)-2,3-dihydro-1H-inden-4-yl)amino)-4H-1,2,4-triazol-3-yl)sulfonyl)-N,N-dimethylpiperidin-4-amine], the half-inhibitory concentration (IC50) – broadly, the midpoint of a concentration-inhibition curve – is at most 10 µM.

The molecule `O=C1CC2(CN1)CN(S(=O)(=O)c1nnc(Nc3c4c(cc5c3CCC5)CCC4)[nH]1)C2` [Example 332, 2-((5-((1,2,3,5,6,7-hexahydro-s-indacen-4-yl)amino)-4H-1,2,4-triazol-3-yl)sulfonyl)-2,6-diazaspiro[3.4]octan-7-one] yielded an IC50 of at most 10 µM. The figure for `NS(=O)(=O)c1cccc(S(=O)(=O)c2nnc(Nc3c4c(cc5c3CCC5)CCC4)[nH]2)c1` [Example 326, 3-((5-((1,2,3,5,6,7-hexahydro-s-indacen-4-yl)amino)-4H-1,2,4-triazol-3-yl)sulfonyl)benzenesulfonamide] is at most 5 µM; for `CN1CC2(CCN(S(=O)(=O)c3nnc(Nc4c5c(cc6c4CCC6)CCC5)[nH]3)CC2)C1` [Example 280, N-(1,2,3,5,6,7-hexahydro-s-indacen-4-yl)-5-((2-methyl-2,7-diazaspiro[3.5]nonan-7-yl)sulfonyl)-4H-1,2,4-triazol-3-amine] it is at most 5 µM. The figure for `COCCNS(=O)(=O)c1nnc(Nc2c3c(cc4c2CCC4)CCC3)[nH]1` [Example 83, 5-((1,2,3,5,6,7-hexahydro-s-indacen-4-yl)amino)-N-(2-methoxyethyl)-4H-1,2,4-triazole-3-sulfonamide] is at most 10 µM.

The molecule `O=S(=O)(c1ccc(F)cc1)c1nnc(Nc2c3c(cc4c2CCC4)CCC3)[nH]1` [Example 181, 5-((4-fluorophenyl)sulfonyl)-N-(1,2,3,5,6,7-hexahydro-s-indacen-4-yl)-4H-1,2,4-triazol-3-amine] showed an IC50 of at most 5 µM. The figure for `O=S(=O)(CC1CCCN1)c1nnc(Nc2c3c(cc4c2CCC4)CCC3)[nH]1` (stereo not shown) [Example 62, N-(1,2,3,5,6,7-hexahydro-s-indacen-4-yl)-3-((pyrrolidin-2-ylmethyl)sulfonyl)-1H-1,2,4-triazol-5-amine] is at most 10 µM; for `COC1(c2cc([S+]([O-])c3nnc(Nc4c5c(cc6c4CCC6)CCC5)[nH]3)nn2C(C)C)COC1` (stereo not shown) [Example 25, N-(1,2,3,5,6,7-hexahydro-s-indacen-4-yl)-5-((1-isopropyl-5-(3-methoxyoxetan-3-yl)-1H-pyrazol-3-yl)sulfinyl)-4H-1,2,4-triazol-3-amine] it is at most 10 µM.

As to `O=S(=O)(c1cccnc1)c1nnc(Nc2c3c(cc4c2CCC4)CCC3)[nH]1` [Example 177, N-(1,2,3,5,6,7-hexahydro-s-indacen-4-yl)-5-(pyridin-3-ylsulfonyl)-4H-1,2,4-triazol-3-amine], the IC50 was at most 5 µM. In the case of `COc1cc(-c2ccc3c(c2Nc2nnc(S(=O)(=O)c4ccccc4)[nH]2)CCC3)ccn1` [Example 372, N-(5-(2-methoxypyridin-4-yl)-2,3-dihydro-1H-inden-4-yl)-5-(phenylsulfonyl)-1H-1,2,4-triazol-3-amine], the IC50 is at most 5 µM.

Regarding `O=S(=O)(c1nnc(Nc2c3c(cc4c2CCC4)CCC3)[nH]1)N1CCC(O)C1` (stereo not shown) [Example 123, 1-((5-((1,2,3,5,6,7-hexahydro-s-indacen-4-yl)amino)-4H-1,2,4-triazol-3-yl)sulfonyl)pyrrolidin-3-ol], the IC50 is at most 5 µM. The figure for `CC(=O)c1c2c(c(Nc3nnc(S(=O)(=O)N4CCC(N(C)C)CC4)[nH]3)c3c1CCC3)CCC2` [Example 232, 1-(8-((5-((4-(dimethylamino)piperidin-1-yl)sulfonyl)-4H-1,2,4-triazol-3-yl)amino)-1,2,3,5,6,7-hexahydro-s-indacen-4-yl)ethan-1-one] is at most 1 µM; for `O=S(=O)(CCc1ccccn1)c1nnc(Nc2c3c(cc4c2CCC4)CCC3)[nH]1` [Example 63, N-(1,2,3,5,6,7-hexahydro-s-indacen-4-yl)-3-((2-(pyridin-2-yl)ethyl)sulfonyl)-1H-1,2,4-triazol-5-amine] it is at most 1 µM; for `COC(=O)CN(CCN)S(=O)(=O)c1nnc(Nc2c3c(cc4c2CCC4)CCC3)[nH]1` [Example 111, methyl 2-(N-(2-aminoethyl)-5-((1,2,3,5,6,7-hexahydro-s-indacen-4-yl)amino)-4H-1,2,4-triazole-3-sulfonamido)acetate] it is at most 10 µM. For `CN(C)C1CCN(S(=O)(=O)c2nnc(Nc3c(-c4cnn(C)c4)ccc4c3CCC4)[nH]2)CC1` [Example 207, N,N-dimethyl-1-((5-((5-(1-methyl-1H-pyrazol-4-yl)-2,3-dihydro-1H-inden-4-yl)amino)-4H-1,2,4-triazol-3-yl)sulfonyl)piperidin-4-amine] the value was at most 5 µM; for `O=S(=O)(CCCO)c1nnc(Nc2c3c(cc4c2CCC4)CCC3)[nH]1` [Example 47, 3-((5-((1,2,3,5,6,7-hexahydro-s-indacen-4-yl)amino)-4H-1,2,4-triazol-3-yl)sulfonyl)propan-1-ol], at most 5 µM. The molecule `O=S(=O)(c1nnc(Nc2c3c(cc4c2CCC4)CCC3)[nH]1)N1CCC2(CCN(C3CC3)C2)CC1` [Example 244, 5-((2-cyclopropyl-2,8-diazaspiro[4.5]decan-8-yl)sulfonyl)-N-(1,2,3,5,6,7-hexahydro-s-indacen-4-yl)-4H-1,2,4-triazol-3-amine] registered an IC50 of at most 5 µM. The figure for `NC(=O)c1ccccc1S(=O)(=O)c1n[nH]c(Nc2c3c(cc4c2CCC4)CCC3)n1` [Example 311, 2-((5-((1,2,3,5,6,7-hexahydro-s-indacen-4-yl)amino)-1H-1,2,4-triazol-3-yl)sulfonyl)benzamide] is at most 5 µM; for `COc1cc(-c2c(C)cc3c(c2Nc2nnc(S(C)(=O)=O)[nH]2)CCC3)ccn1` [Example 312, N-(5-(2-methoxypyridin-4-yl)-6-methyl-2,3-dihydro-1H-inden-4-yl)-5-(methylsulfonyl)-4H-1,2,4-triazol-3-amine] it is at most 5 µM. For `O=S(=O)(c1nnc(Nc2c3c(cc4c2CCC4)CCC3)[nH]1)N1CCC2(CC1)CNC2` [Example 287, 5-((2,7-diazaspiro[35]nonan-7-yl)sulfonyl)-N-(1,2,3,5,6,7-hexahydro-s-indacen-4-yl)-4H-1,2,4-triazol-3-amine] the value was at most 10 µM.

On to `CCNCCCS(=O)(=O)c1nnc(Nc2c3c(cc4c2CCC4)CCC3)[nH]1` [Example 55, 5-((3-(ethylamino)propyl)sulfonyl)-N-(1,2,3,5,6,7-hexahydro-s-indacen-4-yl)-4H-1,2,4-triazol-3-amine], for which the IC50 was at most 5 µM. For `O=S(=O)(c1cnn(CCO)c1)c1nnc(Nc2c3c(cc4c2CCC4)CCC3)[nH]1` [Example 335, 2-(4-((5-((1,2,3,5,6,7-hexahydro-s-indacen-4-yl)amino)-4H-1,2,4-triazol-3-yl)sulfonyl)-1H-pyrazol-1-yl)ethanol] the value was at most 5 µM; for `CN1CCN(S(=O)(=O)c2nnc(Nc3c4c(cc5c3CCC5)CCC4)[nH]2)CC1=O` [Example 113, 4-((5-((1,2,3,5,6,7-hexahydro-s-indacen-4-yl)amino)-4H-1,2,4-triazol-3-yl)sulfonyl)-1-methylpiperazin-2-one], at most 5 µM. Molecule `O=C1CCC(CNS(=O)(=O)c2nnc(Nc3c4c(cc5c3CCC5)CCC4)[nH]2)N1` (stereo not shown) [Example 121, 5-((1,2,3,5,6,7-hexahydro-s-indacen-4-yl)amino)-N-((5-oxopyrrolidin-2-yl)methyl)-4H-1,2,4-triazole-3-sulfonamide] registered an IC50 of at most 10 µM. The figure for `O=S(=O)(c1ccncc1)c1nnc(Nc2c3c(cc4c2CCC4)CCC3)[nH]1` [Example 171, N-(1,2,3,5,6,7-hexahydro-s-indacen-4-yl)-5-(pyridin-4-ylsulfonyl)-4H-1,2,4-triazol-3-amine] is at most 5 µM; for `Cc1cc2c(c(Nc3nnc(S(=O)(=O)N4CCC(N(C)C)CC4)[nH]3)c1-c1ccnc(OC3CCN(C)CC3)c1)CCC2` [Example 316, N,N-dimethyl-1-((5-((6-methyl-5-(2-((1-methylpiperidin-4-yl)oxy)pyridin-4-yl)-2,3-dihydro-1H-inden-4-yl)amino)-4H-1,2,4-triazol-3-yl)sulfonyl)piperidin-4-amine] it is at most 5 µM; for `COc1cc(-c2cccc(C(C)C)c2Oc2nnc(S(=O)(=O)N3CCC(N(C)C)CC3)[nH]2)ccn1` [Example 243, 1-((5-(2-isopropyl-6-(2-methoxypyridin-4-yl)phenoxy)-4H-1,2,4-triazol-3-yl)sulfonyl)-N,N-dimethylpiperidin-4-amine] it is at most 5 µM. The figure for `Cc1cc2c(c(Nc3nnc(S(C)(=O)=O)[nH]3)c1-c1ccnc(OCC3CCCN(C)C3)c1)CCC2` (stereo not shown) [Example 362, N-(6-methyl-5-(2-((1-methylpiperidin-3-yl)methoxy)pyridin-4-yl)-2,3-dihydro-1H-inden-4-yl)-5-(methylsulfonyl)-4H-1,2,4-triazol-3-amine] is at most 5 µM; for `CN1CCC(N(C)S(=O)(=O)c2nnc(Nc3c4c(cc5c3CCC5)CCC4)[nH]2)CC1` [Example 90, 5-((1,2,3,5,6,7-hexahydro-s-indacen-4-yl)amino)-N-methyl-N-(1-methylpiperidin-4-yl)-4H-1,2,4-triazole-3-sulfonamide] it is at most 10 µM. The figure for `CC(C)CCNS(=O)(=O)c1nnc(Nc2c3c(cc4c2CCC4)CCC3)[nH]1` [Example 82, 5-((1,2,3,5,6,7-hexahydro-s-indacen-4-yl)amino)-N-isopentyl-1H-1,2,4-triazole-3-sulfonamide] is at most 10 µM. The molecule `CC(C)c1cc(F)cc(-c2ccncc2)c1Nc1nnc(S(=O)(=O)c2ccccc2)[nH]1` [Example 191, N-(4-fluoro-2-isopropyl-6-(pyridin-4-yl)phenyl)-5-(phenylsulfonyl)-4H-1,2,4-triazol-3-amine] had an IC50 of at most 10 µM.
